“Also recorded” adds a separate entry of the source.
Legend:
[1] = system: male DBA1 mice (collagen II induced arthritis); assay: Collagen II-Induced Arthritis Assay; format: in vivo; details: doses of 0.3, 1 and 3 mg/kg, from day 21
Protocol: Collagen II-Induced Arthritis Assay
6 to 8 week old male DBA1 mice were immunised with 0.1 ml intradermal (tail) injection of bovine type II collagen emulsified in Freund's complete adjuvant (day 0). At day 21 a booster collagen (intraperitoneal) inoculation was given, in PBS. Simultaneously, administration of test compound was given by the predetermined route of administration and delivery frequency. In addition, day 21 commenced observation of clinical signs, body weights and arthritis reaction scores. Arthritis score was assessed by the summation of all four paws scored for signs of arthritis development.

[2] = system: Guinea-pig trachea ring preparations (beta2 agonism); assay: Beta2 Agonism Functional Assay (carbachol-contracted trachea rings); format: cell-based; details: for beta2 agonist activity (in words): guinea-pig trachea, formoterol positive control
Protocol: Beta2 Agonism Functional Assay
Guinea-pig trachea ring preparations were suspended in Kreb's solution containing indomethacin. After 15 minutes stabilisation, the preparations were repeated contracted using carbachol and simultaneously treated with increasing cumulative doses test compounds (0.1 nM to 0.1 μM). Beta2 agonism for each test compound was determined by its dose-dependant inhibition of carbachol-stimulated tracheal muscle twitch.

[3] = system: male Wistar rats (carrageenan-injected right hind paw); assay: Carrageenan Paw Assay; format: in vivo; details: doses of 0.3, 1 and 3 mg/kg oral; 1-5 hours after carrageenan
Protocol: Fasted (18 hour) male Wistar rats (105-130 g) were weighed and a basal mercury plethysmometer reading was taken of the right hind paw by submerging the paw in the mercury up to the tibiotarsal joint. Subsequently, vehicles, reference items and test articles were administered by oral gavage (10 ml/kg). Half an hour after treatment 0.1 ml of 2% carrageenan in 0.9% saline was injected into the subplanatar area of the right hind paw. The right paw was measured again with the plethysmometer at 1, 2, 3, 4 and 5 hours after carrageenan administration.

[4] = system: Male Wistar rats (Freund's adjuvant); assay: Rat Adjuvant Assay; format: in vivo; details: oral once a day from day 11; (S)-clenbuterol at 0.3, 1 and 3 mg/kg/day
Protocol: Male Wistar rats (180 to 200 g) were inoculated by subplantar injection of Freund's adjuvant (suspension of Mycobacterium butyricum in mineral oil) into the right paw at day 0. Sham inoculations were injected in the same way with 0.9% saline in matched Male Wistar rats. On day 2 animals were weighed. On days 3, 4, 7, 9 and 11 animals were weighed and both their right and left hind paws were measure by plethsymometry by submerging the paw up to the tibiotarsal joint. On day 11, rats with left hind paw volumes increased by 20% were selected for continuance in the study. On the same day continuance rats were administered test article orally (10 ml/kg in distilled water) and from then on once a day until the completion of the study. Left and right hind paw volumes were measured on days 11, 14, 15, 16, 18 and 21.

[5] = system: Serum TNFα and IL-10 levels; assay: LPS Mouse Assay; format: in vivo, Balb C ByJ mice; details: LPS 1 mg/kg i.p., serum 2 hours after challenge, 0.3 and 1 mg/kg p.o. for (S)-clenbuterol
Protocol: 7 week old Balb C ByJ mice (24-28 g) were administered, either by i.p. (5 ml/kg) or oral (10 ml/kg) administration, with vehicle or test article. 30 minutes later these animals were challenged with an intraperitoneal injection of 1 mg/kg LPS. 2 hours after LPS challenge blood samples were collected under light isoflurane anaesthesia into normal tubes by retro-orbital puncture. Samples were allowed to clot at room temperature and then spun at 6000 g for 3 min at 4° C. Serum was stored at −20° C. until use. Serum TNFα and IL-10 levels were analysed in duplicate by ELISA technique.

SMILES | anti-inflammatory effect (arthritis score) [1] | inhibition of carbachol-stimulated tracheal muscle twitch ([2]; from −10 to −7 log M, cumulative doses) | beta2 agonist activity (in words) [2] | anti-inflammatory activity (paw volume) [3] | anti-inflammatory effect (hind paw volume) [4] | immunomodulatory activity (serum TNFα and IL-10 after LPS) [5] | immunomodulatory activity (serum TNFα and IL-10 after LPS) ([5]; listed as (S)-clenbuterol) | beta2 agonist activity (in words) ([2]; listed as (R)-clenbuterol)
CC(C)(C)NC[C@@H](O)c1cc(Cl)c(N)c(Cl)c1 [(S)-Clenbuterol, (S)-(+)-clenbuterol] | clear but inverse dose-related anti-inflammatory effect | up to 75% | a little lower than that caused by formoterol | strong and dose-dependent anti-inflammatory activity | clear but non-dose-related anti-inflammatory effect | significant activity | profound immunomodulatory profile; also recorded: less than (R)-clenbuterol | 
CC(C)(C)NC[C@H](O)c1cc(Cl)c(N)c(Cl)c1 [(R)-Clenbuterol] |  |  | little such beta2 agonist activity |  |  | significant activity |  | distinct beta2 agonism

— US20080096971A1, “Treatment of Inflammatory Disorders and Pain” (priority 2004, published 2008)
